The values that follow come from patent publication US20250092013A1, “PRODRUGS OF AXITINIB” (OCULAR THERAPEUTIX, INC., priority 2021, published 2025).

Converted amounts (≈) assume the structure as drawn. Some results are limits rather than exact numbers.

Data set [1] is described as follows: Solubility testing in phosphate buffer saline pH 7.4 (HPLC with calibration curve). The class given is physicochemical. As for the experimental part: Solubility testing was performed with the following test items and conditions: • Test items: axitinib (99.99% purity by HPLC); axitinib-N-succinoyloxymethyl prodrug (94.3% purity by HPLC); • Test media: phosphate buffer saline pH 7.4 • Incubation condition: 24 hour at 22° C. with continuous shaking • Test concentration: 1 mg/mL • Data analysis: Solubility of test item was determined by HPLC analysis with calibration curve

For data set [2] the following is noted: cited from earlier work.

In the case of `CNC(=O)c1ccccc1Sc1ccc2c(/C=C/c3ccccn3)n[nH]c2c1` [Axitinib, axitinib], the solubility (in general, the concentration that dissolves in the medium under given conditions) at 24 h in data set [1] (22 °C, pH 7.4, aqueous buffer, thermodynamic from solid) was less than 0.78 µg/mL. Besides, the literature reported solubility result in data set [2] is “about 0.2 mcg/mL”.
For `CNC(=O)c1ccccc1Sc1ccc2c(/C=C/c3ccccn3)nn(COC(=O)CCC(=O)O)c2c1` [N-Succinoyloxymethyl Prodrug, axitinib-N-succinoyloxymethyl], the Solubility (in general, the concentration that dissolves in the medium under given conditions) in data set [1] (phosphate buffer saline pH 7.4, 24 hour at 22° C. with continuous shaking, test concentration 1 mg/mL) came out at 217.4 µg/mL (≈ 421 µM). Further, the “solubility of the prodrug enhanced (fold vs axitinib)” value in data set [1] (relative to literature reported solubility of axitinib (about 0.2 mcg/mL)) is recorded as roughly 1100 ×.
